Experimental data from patent publication US9840500B2, “Compounds as dual inhibitors of histone methyltransferases and DNA methyltransferases” (FUNDACIÓN PARA LA INVESTIGACIÓN MÉDICA APLICADA, priority 2014, dated 2017).

Columns and labels:
[1] = test system: PLC/PRF/5; assay: Cell proliferation assay, PLC/PRF/5 (HCC); type: cell-based; conditions: Homo sapiens, 48 hours of treatment, Table 3
Protocol: (§1) Cell proliferation was analyzed after 48 hours of in vitro treatment using the CellTiter 96 Aqueous One Solution Cell Proliferation Assay (Promega, Madison, Wis.). This is a colorimetric method for determining the number of viable cells in proliferation.
(§2) For the assay, suspension cells were cultured by triplicate at a density of 1×10^6 cells/ml in 96-well plates (100.000 cells/well, 100 μl/well), except for OCILY-3 and OCILY-10 cell lines which were cultured at a density of 0.5×10^6 cells/ml (50.000 cells/well, 100 μl/well) and for HepG2, Hep3B and PLC/PRF/5 cell ines which were cultured at a density of 3000 cells/well, 100 μl/well). Adherent cells were obtained from 80-90% confluent flasks and 100 μl of cells were seeded at a density of 5000 cells/well in 96-well plates by triplicate. Before addition of the compounds, adherent cells were allowed to attach to the bottom of the wells for 12 hours. In all cases, only the 60 inner wells were used to avoid any border effects.
(§3) After 48 hours of treatment, plates with suspension cells were centrifuged at 800 g for 10 minutes and medium was removed. The plates with adherent cells were flicked to remove medium. Then, cells were incubated with 100 ul/well of medium and 20 ul/well of CellTiter 96 Aqueous One Solution reagent. After 1-3 hours of incubation at 37° C., absorbance was measured at 490 nm in a 96-well plate reader. The background absorbance was measured in wells with only cell line medium and solution reagent. Data was calculated as a percentage of total absorbance of treated cell/absorbance of non treated cells.

[2] = test system: Hep3B; assay: Cell proliferation assay, Hep3B (HCC); type: cell-based; conditions: Homo sapiens, 48 hours of treatment, Table 3
Protocol: as §1, §2, §3

[3] = test system: HepG2; assay: Cell proliferation assay, HepG2 (HCC); type: cell-based; conditions: Homo sapiens, 48 hours of treatment, Table 3
Protocol: as §1, §2, §3

[4] = test system: LAL-CUN-2; assay: Cell proliferation assay, LAL-CUN-2 (ALL); type: cell-based; conditions: 48 hours of treatment; Table 3
Protocol: as §1, §2, §3

[5] = biological target: DNMT1 (Homo sapiens, UniProt P26358); assay: DNMT1 enzyme activity assay (TR-FRET, EPIgeneous methyltransferase assay); type: biochemical
Protocol: The biochemical assay to measure DNMT1 enzyme activity relies on time-resolved fluorescence energy transfer (TR-FRET) between lumi4-Tb (donor) and d2 (acceptor) using the EPIgeneous methyltransferase assay (CisBio Cat#62SAHPEB). […] TR-FRET signal is inversely proportional to the concentration of SAH, product of DNMT1 enzyme activity, in the sample.
The human DNMT1 was obtained from Reaction Biology Corp. (Cat# DMT-21-124). […] Final percentage of DMSO was 0.5%. • 2 μl of 1 nM DNMT1 enzyme diluted in assay buffer.
(§4) For each well, fluorescence was measured at 620 nm and 665 nm. A ratio (665 nm/620 nm) was then calculated in order to minimize medium interferences. Positive control was obtained in the presence of the vehicle of the compounds. Negative control was obtained in the absence of G9a enzyme activity. Calculated IC50 values were determined using GraphPrism using 4-parameters inhibition curve.

[6] = test system: OCI-Ly10; assay: Cell proliferation assay, OCI-Ly10 (ABC-DLBCL); type: cell-based; conditions: Homo sapiens, 48 hours of treatment, Table 3
Protocol: as §1, §2, §3

[7] = test system: OCI-Ly3; assay: Cell proliferation assay, OCI-Ly3 (ABC-DLBCL); type: cell-based; conditions: Homo sapiens, 48 hours of treatment, Table 3
Protocol: as §1, §2, §3

[8] = test system: CEMO-1; assay: Cell proliferation assay, CEMO-1 (ALL); type: cell-based, human; conditions: Homo sapiens; 48 hours of treatment; Table 3
Protocol: as §1, §2, §3

[9] = biological target: T1, human G9a enzyme (Homo sapiens, UniProt Q96KQ7); assay: G9a enzyme activity assay (TR-FRET); type: biochemical
T1 sequence (Q96KQ7 1-1210): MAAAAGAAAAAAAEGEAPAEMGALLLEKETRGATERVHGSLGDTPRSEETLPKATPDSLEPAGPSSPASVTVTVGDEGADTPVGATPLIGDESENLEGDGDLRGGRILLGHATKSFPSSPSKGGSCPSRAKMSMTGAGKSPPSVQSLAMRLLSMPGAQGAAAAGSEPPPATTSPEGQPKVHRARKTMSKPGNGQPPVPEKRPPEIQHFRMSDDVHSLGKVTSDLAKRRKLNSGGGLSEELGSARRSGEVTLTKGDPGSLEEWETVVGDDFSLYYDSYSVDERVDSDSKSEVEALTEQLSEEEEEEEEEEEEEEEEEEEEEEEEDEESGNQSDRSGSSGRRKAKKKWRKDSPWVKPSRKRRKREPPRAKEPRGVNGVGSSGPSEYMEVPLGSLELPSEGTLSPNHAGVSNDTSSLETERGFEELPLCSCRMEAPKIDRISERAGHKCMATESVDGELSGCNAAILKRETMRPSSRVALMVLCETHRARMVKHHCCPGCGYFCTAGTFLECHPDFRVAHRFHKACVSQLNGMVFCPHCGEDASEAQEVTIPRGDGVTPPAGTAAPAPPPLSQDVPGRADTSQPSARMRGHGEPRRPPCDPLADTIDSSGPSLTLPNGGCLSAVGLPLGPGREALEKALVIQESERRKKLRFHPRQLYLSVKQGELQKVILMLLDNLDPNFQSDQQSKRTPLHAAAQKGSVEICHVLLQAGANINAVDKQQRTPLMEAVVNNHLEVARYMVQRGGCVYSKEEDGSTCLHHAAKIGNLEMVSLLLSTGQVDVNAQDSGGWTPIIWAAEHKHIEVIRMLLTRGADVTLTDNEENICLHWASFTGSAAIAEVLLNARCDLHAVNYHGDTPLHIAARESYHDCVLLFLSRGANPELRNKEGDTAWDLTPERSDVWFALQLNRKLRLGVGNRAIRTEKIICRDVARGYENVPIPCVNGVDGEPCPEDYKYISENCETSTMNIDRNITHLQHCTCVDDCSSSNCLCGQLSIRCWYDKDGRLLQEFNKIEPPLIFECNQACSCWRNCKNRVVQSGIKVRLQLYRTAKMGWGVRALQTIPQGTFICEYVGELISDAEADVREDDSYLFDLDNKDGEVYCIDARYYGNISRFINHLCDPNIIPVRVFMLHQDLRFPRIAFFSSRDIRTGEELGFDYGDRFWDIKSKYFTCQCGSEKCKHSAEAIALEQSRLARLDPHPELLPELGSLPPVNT
Protocol: The biochemical assay to measure G9a enzyme activity relies on time-resolved fluorescence energy transfer (TR-FRET) between europium cryptate (donor) and XL665 (acceptor). […] The human G9a enzyme expressed in a baculovirus infected Sf9 cell expression system was obtained from BPS Biosciences (Cat. #51001). […] Final percentage of DMSO was 0.5%. • 2 μl of 1 nM G9a enzyme diluted in assay buffer. […] Final concentration 150 nM. • Then, add 5 μl of streptavidin XL665 beads. Final concentration of 16 μM. • Read the plate after 1 hour of incubation at room temperature.
as §4

DNMT1, sequence (P26358 whole entry): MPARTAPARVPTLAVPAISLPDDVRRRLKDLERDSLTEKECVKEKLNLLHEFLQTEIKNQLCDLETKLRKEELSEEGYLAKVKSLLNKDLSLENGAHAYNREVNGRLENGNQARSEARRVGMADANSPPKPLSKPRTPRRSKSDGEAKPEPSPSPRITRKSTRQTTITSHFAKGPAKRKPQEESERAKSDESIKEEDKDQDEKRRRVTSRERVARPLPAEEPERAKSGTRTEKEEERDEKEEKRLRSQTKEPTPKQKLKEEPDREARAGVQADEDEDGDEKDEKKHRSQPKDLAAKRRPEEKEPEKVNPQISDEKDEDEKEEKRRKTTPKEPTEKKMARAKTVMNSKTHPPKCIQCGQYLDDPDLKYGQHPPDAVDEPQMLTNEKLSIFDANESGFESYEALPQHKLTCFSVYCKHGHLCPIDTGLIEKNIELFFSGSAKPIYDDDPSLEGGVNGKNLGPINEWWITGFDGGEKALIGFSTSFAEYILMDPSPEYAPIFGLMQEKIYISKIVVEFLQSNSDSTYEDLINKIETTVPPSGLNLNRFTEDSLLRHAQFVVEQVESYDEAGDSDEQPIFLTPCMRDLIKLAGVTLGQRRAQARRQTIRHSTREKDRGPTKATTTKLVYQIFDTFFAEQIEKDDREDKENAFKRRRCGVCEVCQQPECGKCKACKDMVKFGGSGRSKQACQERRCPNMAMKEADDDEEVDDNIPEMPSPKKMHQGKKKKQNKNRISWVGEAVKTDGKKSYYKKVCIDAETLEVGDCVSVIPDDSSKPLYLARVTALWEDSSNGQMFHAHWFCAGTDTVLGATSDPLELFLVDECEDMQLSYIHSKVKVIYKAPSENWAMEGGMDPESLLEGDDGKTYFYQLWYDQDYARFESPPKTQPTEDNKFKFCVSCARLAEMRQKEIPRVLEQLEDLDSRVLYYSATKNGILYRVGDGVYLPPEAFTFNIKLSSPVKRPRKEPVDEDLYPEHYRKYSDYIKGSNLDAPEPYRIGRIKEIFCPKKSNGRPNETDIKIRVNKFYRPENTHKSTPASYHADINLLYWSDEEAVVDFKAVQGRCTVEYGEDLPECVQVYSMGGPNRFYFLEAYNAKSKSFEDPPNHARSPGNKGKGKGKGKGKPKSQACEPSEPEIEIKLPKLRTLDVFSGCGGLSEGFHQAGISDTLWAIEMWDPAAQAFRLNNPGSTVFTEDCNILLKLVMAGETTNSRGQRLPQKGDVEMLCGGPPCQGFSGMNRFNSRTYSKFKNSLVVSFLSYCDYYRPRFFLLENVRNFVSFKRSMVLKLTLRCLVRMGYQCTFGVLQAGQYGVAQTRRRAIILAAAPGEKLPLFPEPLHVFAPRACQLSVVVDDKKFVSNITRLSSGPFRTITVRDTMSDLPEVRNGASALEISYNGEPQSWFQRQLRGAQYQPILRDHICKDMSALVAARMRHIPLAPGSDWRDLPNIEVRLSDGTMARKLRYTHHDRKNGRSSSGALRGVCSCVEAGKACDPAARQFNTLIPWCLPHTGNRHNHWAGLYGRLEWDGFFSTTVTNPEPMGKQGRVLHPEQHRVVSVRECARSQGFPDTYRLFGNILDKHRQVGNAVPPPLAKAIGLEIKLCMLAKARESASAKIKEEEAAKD

SMILES | GI50 [1] [nM] | GI50 [2] [nM] | GI50 [3] [nM] | GI50 [4] [nM] | IC50 [5] [nM] | GI50 [6] [nM] | GI50 [7] [nM] | GI50 [8] [nM] | IC50 [9] [nM]
CCc1ccc(-c2cc(NC3CCN(C)CC3)c3cc(OC)c(OCCCN4CCCC4)cc3n2)o1 [Compound 3-41] | 100 to 1000 | 100 to 1000 | 100 to 1000 | 100 to 1000 |  |  |  |  | 
COc1cc2c(NC3CCN(C)CC3)cc(-c3ccc(C)[nH]3)nc2cc1OCCCN1CCCC1 [Compound 3-31] |  |  |  | ≤ 10000 | 100 to 500 | 100 to 1000 | 100 to 1000 | 1000 to 10000 | < 100
CCc1ccc(-c2cc(NCC3CCN(C4CC4)CC3)c3cc(OC)c(OCCCN4CCCC4)cc3n2)o1 [Compound 3-49] | 100 to 1000 | 100 to 1000 | 100 to 1000 |  | 100 to 500 | 100 to 1000 | < 100 | 100 to 1000 | 100 to 500
COc1cc2c(NC3CCN(C)CC3)cc(C3=CCCCC3)nc2cc1OCCCN1CCCC1 [Compound 6-01, 2-(cyclohexen-1-yl)-6-methoxy-N-(1-methyl-4-piperidyl)-7-(3-pyrrolidin-1-ylpropoxy)quinolin-4-amine; 2,2,2-trifluoroacetic acid] |  |  |  | 1000 to 10000 | 100 to 500 |  |  | 1000 to 10000 | < 100
COc1cc2c(NC3CCN(C)CC3)cc(-c3ccoc3)nc2cc1OCCCN1CCCC1 [Compound 3-27] |  |  |  | ≤ 10000 | 1000 to 10000 | 100 to 1000 | ≤ 10000 | 1000 to 10000 | < 100
COc1cc2c(NC3CCN(C)CC3)cc(-c3ccc4occc4c3)nc2cc1OCCCN1CCCC1 [Compound 3-28] |  |  |  |  | 500 to 1000 | < 100 |  | 1000 to 10000 | < 100
COc1cc2c(NC3CCCC3)cc(C)nc2cc1OCCCN1CCCC1 [Compound 3-24] |  |  |  |  | 1000 to 10000 | 1000 to 10000 |  |  | < 100
CCc1ccc(-c2cc(NC3CC4(CCN(C)CC4)C3)c3cc(OC)c(OCCCN4CCCC4)cc3n2)o1 [Compound 5-06, 2-(5-ethyl-2-furyl)-6-methoxy-N-(7-methyl-7-azaspiro[3.5]nonan-2-yl)-7-(3-pyrrolidin-1-ylpropoxy)quinolin-4-amine; 2,2,2-trifluoroacetic acid] | 100 to 1000 | 100 to 1000 | 100 to 1000 |  | 100 to 500 | 100 to 1000 | 100 to 1000 | 100 to 1000 | < 100
COc1cc2c(NC3CCNCC3)cc(-c3ccc(C)o3)nc2cc1OCCCN1CCCC1 [Compound 3-08] |  |  |  | 1000 to 10000 | 100 to 500 | ≤ 10000 | 1000 to 10000 | 1000 to 10000 | < 100
CCc1ccc(-c2cc(NC3CCN(C4CC4)CC3)c3cc(OC)c(OCCCN4CCCC4)cc3n2)o1 [Compound 3-48] | ≤ 10000 | 1000 to 10000 | 1000 to 10000 |  | 100 to 500 | 100 to 1000 | 1000 to 10000 | 100 to 1000 | < 100
